This assay has as its target SIK2 (Homo sapiens (Human), UniProt Q9H0K1). The experiment in a line: SIK2 Enzymatic Assay Version 2 (High ATP). In kind it is biochemical. To be noted: 3 mM ATP and 200 μM HDAC5tide final, ADP-Glo Max luminescence. The method, boiled down:
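Luminescent ADP-Glo Max read-out: depletion reagent 2 h, then detection reagent 1 h. Before the reaction, compounds were incubated 30 min with enzyme added at 6 nM (twice final concentration), with all steps at room temperature.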
(In general: ADP-Glo first removes unused ATP, then detects ADP through luciferase.)
SIK2, sequence (Q9H0K1 whole entry, species assumed): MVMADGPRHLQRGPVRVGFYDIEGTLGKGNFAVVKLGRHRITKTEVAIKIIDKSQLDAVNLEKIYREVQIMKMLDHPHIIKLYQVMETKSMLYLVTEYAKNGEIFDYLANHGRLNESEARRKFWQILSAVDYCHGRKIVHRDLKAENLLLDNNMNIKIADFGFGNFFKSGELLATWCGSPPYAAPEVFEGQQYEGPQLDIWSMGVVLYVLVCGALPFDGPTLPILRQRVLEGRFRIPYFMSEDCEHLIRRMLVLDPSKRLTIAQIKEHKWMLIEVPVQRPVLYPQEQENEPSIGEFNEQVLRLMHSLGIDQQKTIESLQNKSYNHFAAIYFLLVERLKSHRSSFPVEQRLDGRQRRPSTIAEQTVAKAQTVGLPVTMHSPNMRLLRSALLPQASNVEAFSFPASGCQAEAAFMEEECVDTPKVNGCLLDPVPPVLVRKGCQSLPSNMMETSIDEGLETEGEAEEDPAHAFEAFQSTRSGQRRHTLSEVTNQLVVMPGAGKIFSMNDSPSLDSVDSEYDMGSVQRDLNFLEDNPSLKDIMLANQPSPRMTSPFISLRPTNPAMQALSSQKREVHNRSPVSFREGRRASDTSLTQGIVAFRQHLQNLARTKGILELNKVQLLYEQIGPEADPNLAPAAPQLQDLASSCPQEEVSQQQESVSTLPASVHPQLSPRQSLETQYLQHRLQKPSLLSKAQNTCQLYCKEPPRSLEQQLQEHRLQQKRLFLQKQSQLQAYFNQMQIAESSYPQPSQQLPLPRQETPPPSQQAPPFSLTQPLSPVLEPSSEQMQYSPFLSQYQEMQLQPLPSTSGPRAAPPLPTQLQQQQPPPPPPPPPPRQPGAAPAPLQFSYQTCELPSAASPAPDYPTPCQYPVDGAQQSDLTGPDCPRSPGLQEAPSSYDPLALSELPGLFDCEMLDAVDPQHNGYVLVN
`COc1nc(C)cc(Nc2cc3cc(-c4c(OC[C@H]5CCN5C)cnn4C)ccn3n2)n1` [Example 146, N-(2-methoxy-6-methyl-pyrimidin-4-yl)-5-[2-methyl-4-[[(2R)-1-methylazetidin-2-yl]methoxy]pyrazol-3-yl]pyrazolo[1,5-a]pyridin-2-amine] came in with an IC50 below 0.847 nM.
The figure for `CN1C[C@@H](COc2cnn(C)c2-c2ccn3nc(NC(=O)C4CC4)cc3c2)[C@H](O)C1` [Example 417, N-[5-[4-[[(3S,4S)-4-hydroxy-1-methyl-pyrrolidin-3-yl]methoxy]-2-methyl-pyrazol-3-yl]pyrazolo[1,5-a]pyridin-2-yl]cyclopropanecarboxamide] is 130 nM; for `CN1CC[C@@H]1COc1cnn(C)c1-c1ccn2nc(Nc3ccc(C(=O)NCC(C)(C)O)cn3)cc2c1` [Example 106, N-(2-hydroxy-2-methyl-propyl)-6-[[5-[2-methyl-4-[[(2R)-1-methylazetidin-2-yl]methoxy]pyrazol-3-yl]pyrazolo[1,5-a]pyridin-2-yl]amino]pyridine-3-carboxamide] it is 2.4 nM; for `C[C@@H]1[C@@H](COc2cnn(C)c2-c2ccn3nc(NC(=O)C4CC4)cc3c2)CN1C` (single isomer, unassigned) [Example 41, trans-N-(5-(4-(((2*R,3*S)-1,2-dimethylazetidin-3-yl)methoxy)-1-methyl-1H-pyrazol-5-yl)pyrazolo[1,5-a]pyridin-2-yl)cyclopropanecarboxamide] it is 14.6 nM.
For `Cc1cncc(Nc2cc3cc(-c4c(CO[C@H]5CN(C)C[C@H]5C)cnn4C)ccn3n2)n1` (stereo in doubt) [Example 370, CIS-Rac-5-[4-[(1,4-dimethylpyrrolidin-3-yl)oxymethyl]-2-methyl-pyrazol-3-yl]-N-(6-methylpyrazin-2-yl)pyrazolo[1,5-a]pyridin-2-amine] the value was 2.9 nM.
The molecule `CN1CC[C@@H]1COc1cnn(C)c1-c1ccn2nc(Nc3cnc(OC(F)F)cn3)cc2c1` [Example 155, N-[5-(difluoromethoxy)pyrazin-2-yl]-5-[2-methyl-4-[[(2R)-1-methylazetidin-2-yl]methoxy]pyrazol-3-yl]pyrazolo[1,5-a]pyridin-2-amine] showed an IC50 of 6.6 nM.
For `Cc1cc(Nc2cc3cc(-c4c(CO[C@@H]5CN(C)C[C@@H]5C)cnn4C)ccn3n2)nc(C)n1` (stereo in doubt) [Example 369, CIS—*S, *S—N-(2,6-dimethylpyrimidin-4-yl)-5-[4-[(1,4-dimethylpyrrolidin-3-yl)oxymethyl]-2-methyl-pyrazol-3-yl]pyrazolo[1,5-a]pyridin-2-amine] the value was 2 nM; for `Cc1cc(Nc2cc3cc(-c4c(OC[C@@]5(F)CCNC5)cnn4C(F)F)ccn3n2)nc(C)n1` (single isomer, unassigned) [Example 262, (*R)-5-(1-(difluoromethyl)-4-((3-fluoropyrrolidin-3-yl)methoxy)-1H-pyrazol-5-yl)-N-(2,6-dimethylpyrimidin-4-yl)pyrazolo[1,5-a]pyridin-2-amine], 4.7 nM.
In the case of `CCN1CC[C@@H]1COc1cnn(C)c1-c1ccn2nc(Nc3cc(C)nc(OC)n3)cc2c1` [Example 173, 5-[4-[[(2R)-1-ethylazetidin-2-yl]methoxy]-2-methyl-pyrazol-3-yl]-N-(2-methoxy-6-methyl-pyrimidin-4-yl)pyrazolo[1,5-a]pyridin-2-amine], the half-inhibitory concentration (IC50) was below 0.847 nM.
`CN1CC(C)(COc2cnn(C)c2-c2ccn3nc(NC(=O)C4CC4)cc3c2)C1` [Example 314, N-[5-[4-[(1,3-dimethylazetidin-3-yl)methoxy]-2-methyl-pyrazol-3-yl]pyrazolo[1,5-a]pyridin-2-yl]cyclopropanecarboxamide] showed a 50% inhibitory concentration (IC50) of 30.4 nM.
Molecule `CN1CCC[C@@H]1COc1cnn(C)c1-c1ccn2nc(Nc3ccc(C4CC4)nn3)cc2c1` [Example 284, N-(6-cyclopropylpyridazin-3-yl)-5-[2-methyl-4-[[(2R)-1-methylpyrrolidin-2-yl]methoxy]pyrazol-3-yl]pyrazolo[1,5-a]pyridin-2-amine] returned a half-inhibitory concentration (IC50) of 16.5 nM. This IC50 is about 1.8-fold lower than that of the molecule before.
For `Cc1cc(Nc2cc3cc(-c4c(OC[C@H]5CCN5)cnn4C)ccn3n2)nc(C(F)(F)F)n1` [Example 273, 5-[4-[[(2R)-azetidin-2-yl]methoxy]-2-methyl-pyrazol-3-yl]-N-[6-methyl-2-(trifluoromethyl)pyrimidin-4-yl]pyrazolo[1,5-a]pyridin-2-amine] the value was 18.1 nM; for `Cn1ncc(O[C@@H]2CCNC2)c1-c1ccn2nc(NC(=O)C3CC3)cc2c1` [Example 335, N-[5-[2-methyl-4-[(3R)-pyrrolidin-3-yl]oxy-pyrazol-3-yl]pyrazolo[1,5-a]pyridin-2-yl]cyclopropanecarboxamide], 68.7 nM; for `CN1CC[C@@H]1COc1cnn(C)c1-c1ccn2nc(Nc3cnc(C(=O)NCC(C)(C)O)cn3)cc2c1` [Example 132, N-(2-hydroxy-2-methyl-propyl)-5-[[5-[2-methyl-4-[[(2R)-1-methylazetidin-2-yl]methoxy]pyrazol-3-yl]pyrazolo[1,5-a]pyridin-2-yl]amino]pyrazine-2-carboxamide], 8.9 nM.
The figure for `CN1CC[C@@H]1COc1cnn(C)c1-c1ccn2nc(NC(=O)[C@@H]3C[C@@H]3c3ccccc3)cc2c1` (mixture of isomers) [Example 473, cis-N-[5-[2-methyl-4-[(1-methylazetidin-2-yl)methoxy]pyrazol-3-yl]pyrazolo[1,5-a]pyridin-2-yl]-2-phenyl-cyclopropanecarboxamide] is 113 nM; for `Cc1onc(O[C@H]2CN[C@H]3CCCO[C@H]32)c1-c1ccn2nc(NC(=O)C3CC3)cc2c1` (single isomer, unassigned) [Example 228, N-(5-(5-methyl-3-(((3*S,3a*R,7a*S)-octahydropyrano[3,2-b]pyrrol-3-yl)oxy)isoxazol-4-yl)pyrazolo[1,5-a]pyridin-2-yl)cyclopropanecarboxamide] it is 16.4 nM.
The figure for `CN1CC(COc2cnn(C)c2-c2ccn3nc(NC(=O)C4CC4)cc3c2)(c2ccccc2)C1` [Example 410, N-[5-[2-methyl-4-[(1-methyl-3-phenyl-azetidin-3-yl)methoxy]pyrazol-3-yl]pyrazolo[1,5-a]pyridin-2-yl]cyclopropanecarboxamide] is 72.5 nM; for `Cc1onc(OCC2(c3ccccc3)CNC2)c1-c1ccn2nc(NC(=O)C3CC3)cc2c1` [Example 199, N-[5-[5-methyl-3-[(3-phenylazetidin-3-yl)methoxy]isoxazol-4-yl]pyrazolo[1,5-a]pyridin-2-yl]cyclopropanecarboxamide] it is 14.1 nM.
On to `CO[C@@H]1CNC[C@@H]1Oc1cnn(C)c1-c1ccn2nc(NC(=O)C3CC3)cc2c1` (single isomer, unassigned) [Example 40, N-(5-(4-(((3*S,4*R)-4-methoxypyrrolidin-3-yl)oxy)-1-methyl-1H-pyrazol-5-yl)pyrazolo[1,5-a]pyridin-2-yl)cyclopropanecarboxamide], for which the IC50 was 444 nM.
For `Cc1cc(Nc2cc3cc(-c4c(OC[C@H]5C[C@H](C)CN5)cnn4C)ccn3n2)nc(C)n1` [Example 446, N-(2,6-dimethylpyrimidin-4-yl)-5-[2-methyl-4-[[(2R,4S)-4-methylpyrrolidin-2-yl]methoxy]pyrazol-3-yl]pyrazolo[1,5-a]pyridin-2-amine] the value was 111 nM.
For `Cc1onc(OC2CCN(C)CC2)c1-c1ccn2nc(NC(=O)C3CC3)cc2c1` [Example 493, N-[5-[5-methyl-3-[(1-methyl-4-piperidyl)oxy]isoxazol-4-yl]pyrazolo[1,5-a]pyridin-2-yl]cyclopropanecarboxamide] the value was 236 nM.
The figure for `CN1CC(C)(C)[C@H]1COc1cnn(C)c1-c1ccn2nc(NC(=O)C3CC3)cc2c1` [Example 3, N-[5-[2-methyl-4-[[(2S)-1,3,3-trimethylazetidin-2-yl]methoxy]pyrazol-3-yl]pyrazolo[1,5-a]pyridin-2-yl]cyclopropanecarboxamide] is 8.5 nM.
As for `Cc1cc(Nc2cc3cc(-c4c(OC[C@H]5CCN5C)cnn4C(F)F)ccn3n2)nn(C)c1=O` [Example 33, 6-[[5-[2-(difluoromethyl)-4-[[(2R)-1-methylazetidin-2-yl]methoxy]pyrazol-3-yl]pyrazolo[1,5-a]pyridin-2-yl]amino]-2,4-dimethyl-pyridazin-3-one], the IC50 stood at 1.3 nM.
As for `COC(C)(C)CN1CC[C@@H]1COc1cnn(C)c1-c1ccn2nc(NC(=O)C3CC3)cc2c1` [Example 435, N-[5-[4-[[(2R)-1-(2-methoxy-2-methyl-propyl)azetidin-2-yl]methoxy]-2-methyl-pyrazol-3-yl]pyrazolo[1,5-a]pyridin-2-yl]cyclopropanecarboxamide], 79.7 nM corresponded to half-maximal inhibition (IC50).
`Cn1ncc(OC[C@H]2CNCCO2)c1-c1ccn2nc(NC(=O)C3CC3)cc2c1` [Example 6, N-[5-[2-methyl-4-[[(2R)-morpholin-2-yl]methoxy]pyrazol-3-yl]pyrazolo[1,5-a]pyridin-2-yl]cyclopropanecarboxamide]: the IC50 amounted to 14 nM.
The figure for `Cc1cc(Nc2cc3cc(-c4c(O[C@H]5CCN[C@@H]5C)cnn4C)ccn3n2)nc(C)n1` [Example 442, N-(2,6-dimethylpyrimidin-4-yl)-5-[2-methyl-4-[(2R,3S)-2-methylpyrrolidin-3-yl]oxy-pyrazol-3-yl]pyrazolo[1,5-a]pyridin-2-amine] is 106 nM; for `Cc1onc(OC[C@@H](c2ccccc2F)N(C)C)c1-c1ccn2nc(NC(=O)C3CC3)cc2c1` [Example 222, N-[5-[3-[(2R)-2-(dimethylamino)-2-(2-fluorophenyl)ethoxy]-5-methyl-isoxazol-4-yl]pyrazolo[1,5-a]pyridin-2-yl]cyclopropanecarboxamide] it is 27.5 nM; for `CN1CC[C@H](Oc2cnn(C)c2-c2ccn3nc(Nc4ccccn4)cc3c2)C1` [Example 452, 5-[2-methyl-4-[(3S)-1-methylpyrrolidin-3-yl]oxy-pyrazol-3-yl]-N-(2-pyridyl)pyrazolo[1,5-a]pyridin-2-amine] it is 135 nM.

Usually IC50 stands for the concentration that gives 50% inhibition. Low values mean greater potency, high ones weaker potency.

Values taken from US20240174662A1, “SMALL MOLECULE INHIBITORS OF SALT INDUCIBLE KINASES” (Janssen Biotech, Inc., priority 2021, published 2024).
